Experimental data: patent US20110045065A1, “SUBSTANCE HAVING ANTIOXIDANT, GEROPROTECTIVE AND ANTI-ISCHEMIC ACTIVITY AND METHOD FOR THE PREPARATION THEREOF” (priority 2005, published 2011)

Legend:
tissue of the eye = test: Local irritant action to tissue of the eye; format: in vivo, rabbit; settings: six rabbits, single instillation of 1% solution, within 1 min after dropping
Description: The experimental measurements are carried out on six rabbits. All animals have been subjected to single instillation of 1% solution of compound I into the right eye and 1% solution of emoxypine into the left eye. The front section of the eye is controlled by a focal illumination method with a 20 D lens within 1 min. after dropping.

traumatic hemophthalmia = test: Experimental traumatic hemophthalmia: biochemical parameters in blood serum, tear liquid, anterior chamber liquid and eye tissue; format: in vivo, chinchilla rabbits
Description: Studies were carried out in 12 chinchilla rabbits having body weight 2.0-2.5 kg. A traumatic hemophthalmia was modeled by introduction of 0.5 to 0.7 ml of autoblood into a vitreous body through a puncture in a sclera on distance of 5 mm from a limbus, under a local anaesthesia. The basic group made with 6 rabbits (12 eyes), daily received a formulation prepared in accordance with the present invention parabulbarly (0.5 ml of 1% solution). A control group presented by 6 animals (12 eyes), daily received parabulbar emoxipin (2-ethyl-6-methyl-3-hydroxypiridin) in the same dosage. Treatment was carried out within 14 days after a trauma.
The materials used for biochemical examination were as follows: blood, liquid of the anterior chamber, tear liquid, tunics of eyeglobe (retina, a vitreous body). The blood was taken from the aural vein in an amount of 3 ml. Sampling of tear liquid was carried out by a microcapillary after instillation of distilled water into the conjunctival cavity. Liquid of the anterior chamber was obtained by paracentesis. The blood sampling as well as liquid of the anterior chamber and teat liquid were carried out on the 1st, 7th and 14th day of the experiment. On the 15th day of the studies, the animals were killed (pithed) by air embolism and both the eyes were enucleated. The eyes were prepared by tunic separation. Retina and vitreous body were obtained.

[1] = system: acute myocardial ischemia (occlusion of the coronary artery of rats); test: Sizes of necrosis and ischemia zones in acute myocardial ischemia; format: in vivo, rat
Description: The experiments are carried out with non-pedigree male rats having a weight of 250-300 g, which have been anesthetized with sodium ethaminale (40 mg/kg intraperitoneally). A myocardial infarction was modeled for animals, transferred to controlled breathing, by ligation of a descending branch of the left-hand coronary artery to a level of the lower edge of an auricula atrii.
The sizes of necrosis zones and ischemia zones have been determined within 4 hours after occlusion of the coronary artery by a differential indicator method, the principle of which is based on separate quantitative determination of Evans' blue (indicator of an ischemia zone) and red phormazane (indicator of an necrosis zone).

[2] = 1st day, anterior chamber liquid (ACL)
[3] = 7th day, anterior chamber liquid (ACL)
[4] = 14th day, anterior chamber liquid (ACL)
[5] = rats, 16 mg/kg, within 4 hours after occlusion of the coronary artery

“2,4,6-trimethyl-3-oxypyridine succinate [Compound Ic]” was tested, and the “Local irritant reaction of conjunctiva, eyeglobe and cornea” value (tissue of the eye) was “do not show local irritating action on tissue of the eye”, the “Local irritant reaction of conjunctiva, eyeglobe and cornea” value (tissue of the eye; listed as I) was “not detected” and the AOA (traumatic hemophthalmia; [2]) was 0.4 ± 0.01 relative unit. The “Concentration of TBA-active products” value (traumatic hemophthalmia; [2]) was 0.97 ± 0.18 nmol/mL, the Protein concentration (traumatic hemophthalmia; [2]) was 3.1 ± 1.2 mg/mL and the AOA (traumatic hemophthalmia; 1st day, blood serum (BS)) was 1.7 ± 0.3 relative unit. The “Concentration of TBA-active products” value (traumatic hemophthalmia; 1st day, blood serum (BS)) was 1.29 ± 0.13 nmol/mL, the Protein concentration (traumatic hemophthalmia; 1st day, blood serum (BS)) was 90.0 ± 6.0 mg/mL and the AOA (traumatic hemophthalmia; 1st day, tear liquid (TL)) was 0.23 ± 0.02 relative unit. For the same substance, the “Concentration of TBA-active products” value (traumatic hemophthalmia; 1st day, tear liquid (TL)) was 0.14 ± 0.01 nmol/mL, the Protein concentration (traumatic hemophthalmia; 1st day, tear liquid (TL)) was 0.32 ± 0.2 mg/mL and the “AOA of basic group relative to control group, average of all measured substrata” value (traumatic hemophthalmia; 7th day) was 1.5 times. For the same substance, the AOA (traumatic hemophthalmia; 7th day, anterior chamber liquid) was 0.8±0.07 /100 mcl, the AOA (traumatic hemophthalmia; [3]) was 0.8 ± 0.07 relative unit and the “Concentration of TBA-active products” value (traumatic hemophthalmia; [3]) was 0.8 ± 0.5 nmol/mL. For the same substance, the Protein concentration (traumatic hemophthalmia; [3]) was 4.4 ± 1.2 mg/mL, the AOA (traumatic hemophthalmia; 7th day, blood serum) was 2.4±0.02 /100 mcl and the AOA (traumatic hemophthalmia; 7th day, blood serum (BS)) was 2.4 ± 0.02 relative unit. The “Concentration of TBA-active products” value (traumatic hemophthalmia; 7th day, blood serum (BS)) was 1.17 ± 0.05 nmol/mL, the Protein concentration (traumatic hemophthalmia; 7th day, blood serum (BS)) was 82.4 ± 1.3 mg/mL and the AOA (traumatic hemophthalmia; 7th day, tear liquid) was 0.24±0.02 /200 mcl. For the same substance, the AOA (traumatic hemophthalmia; 7th day, tear liquid (TL)) was 0.24 ± 0.02 relative unit, the “Concentration of TBA-active products” value (traumatic hemophthalmia; 7th day, tear liquid (TL)) was 0.13 ± 0.05 nmol/mL and the Protein concentration (traumatic hemophthalmia; 7th day, tear liquid (TL)) was 0.7 ± 0.2 mg/mL. The AOA (traumatic hemophthalmia; 14th day, anterior chamber liquid) was 0.5±0.05 /100 mcl, the AOA (traumatic hemophthalmia; [4]) was 0.5 ± 0.05 relative unit and the “Concentration of TBA-active products” value (traumatic hemophthalmia; [4]) was 0.6 ± 0.2 nmol/mL. For the same substance, the Protein concentration (traumatic hemophthalmia; [4]) was 4.1 ± 1.1 mg/mL, the AOA (traumatic hemophthalmia; 14th day, blood serum) was 1.9±0.7 /100 mcl and the AOA (traumatic hemophthalmia; 14th day, blood serum (BS)) was 1.9 ± 0.7 relative unit. For the same substance, the “Concentration of TBA-active products” value (traumatic hemophthalmia; 14th day, blood serum (BS)) was 0.9 ± 0.15 nmol/mL, the Protein concentration (traumatic hemophthalmia; 14th day, blood serum (BS)) was 47.0 ± 3.0 mg/mL and the AOA (traumatic hemophthalmia; 14th day, tear liquid) was 0.08±0.02 /200 mcl. The AOA (traumatic hemophthalmia; 14th day, tear liquid (TL)) was 0.08 ± 0.02 relative unit, the “Concentration of TBA-active products” value (traumatic hemophthalmia; 14th day, tear liquid (TL)) was 0.04 ± 0.07 nmol/mL and the Protein concentration (traumatic hemophthalmia; 14th day, tear liquid (TL)) was 0.6 ± 0.2 mg/mL. The AOA (traumatic hemophthalmia; Retina, listed under 14th day (eyes enucleated on the 15th day)) was 0.4 ± 0.07 relative unit, the AOA (traumatic hemophthalmia; Vitreous body, listed under 14th day (eyes enucleated on the 15th day)) was 3.5 ± 0.9 relative unit and the “Antioxidant activity in vivo in comparison” value (traumatic hemophthalmia; conclusion in words) was “higher antioxidant activity than emoxipin”. The “Augmentation of AOA in basic group in comparison with the control group” value (traumatic hemophthalmia; eye tunics, a retina and a vitreous body) was 2 times, the “Ratio of necrosis zone to ischemia zone” value [1, 5] was 11 ± 3.3% and the “Ratio of necrosis zone to total mass of the myocardium” value [1, 5] was 4 ± 2.3%. For the same substance, the “Anti-ischemic activity in comparison” value ([1]; result in words) was “considerably higher anti-ischemic activity than the other 3-oxypyridines”.
